Test results: publication PMC12473319, “TDMQ20 as A Drug Candidate for Wilson’s Disease: Comparison with D-Penicillamine, Trientine, and Tetrathiomolybdate In Vitro and In Mice” (Pharmaceutics, 2025)
pIC50: −log10 of the molar value. Read-outs that look alike come from different tables or passages of the source.

Biological target: T1, Cu,Zn-SOD (Cu,Zn-superoxide dismutase) (Bos taurus, UniProt P00442)
T1 construct: gene SOD1
Experiment: SOD kit (xanthine/xanthine oxidase, WST-1 formazan at […] nm) after […] h pre-incubation with chelator
Assay type: biochemical

T1 sequence (P00442 2-152): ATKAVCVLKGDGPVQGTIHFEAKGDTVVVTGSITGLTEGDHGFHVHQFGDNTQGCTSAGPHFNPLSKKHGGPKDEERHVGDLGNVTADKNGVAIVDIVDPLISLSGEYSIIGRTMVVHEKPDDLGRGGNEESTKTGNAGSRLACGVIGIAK

pIC50 (read-out: IC50) | SMILES | pIC50
– | [S]=[Mo](=[S])([SH])[SH] [bcTTM, Bis-choline-tetrathiomolybdate] | > 6.70
4.00 to 4.30 | CC(C)(S)[C@@H](N)C(=O)O [DPA, 3-mercapto-D-valine] | –
